Results reported in publication PMC5505244, “Crystal structure of a family 6 cellobiohydrolase from the basidiomycete Phanerochaete chrysosporium” (Acta Crystallographica. Section F, Structural Biology …, 2017).

Legend:
PcCel6A [1] = molecular target: T1, PcCel6A (Phanerodontia chrysosporium, UniProt Q02321); experiment: hydrolysis in crystal soak, inferred from bound product in X-ray structure; format: biochemical; details: pH 5.0, 10 h soak; intact compound not seen in the structure
T1 construct: gene cbhII; catalytic domain only; N-terminal CBM and linker (residues 1-81) deleted; pPICZalpha vector, secreted from Pichia pastoris; about 37 kDa; nonglycosylated in crystal; model residues 82-439; one molecule in asymmetric unit

PcCel6A [2] = molecular target: T1, PcCel6A; experiment: X-ray crystal structure, […] Å; format: binding; details: crystal soaked with pNPG3 for 10 h, pH 5.0; active site, subsites +1 and +2; loops closed; putative Tris at subsite -1

T1 sequence (Q02321 entry or part of it): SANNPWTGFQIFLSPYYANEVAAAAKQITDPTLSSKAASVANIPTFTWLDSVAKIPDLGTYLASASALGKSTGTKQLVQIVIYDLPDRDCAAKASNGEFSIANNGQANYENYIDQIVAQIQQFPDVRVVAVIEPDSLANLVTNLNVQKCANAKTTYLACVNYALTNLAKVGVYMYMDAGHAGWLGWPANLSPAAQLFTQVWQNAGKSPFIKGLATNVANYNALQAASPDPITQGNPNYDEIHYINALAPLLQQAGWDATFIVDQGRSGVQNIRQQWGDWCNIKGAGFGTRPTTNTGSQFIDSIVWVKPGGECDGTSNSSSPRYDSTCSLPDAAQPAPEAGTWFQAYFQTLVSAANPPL

Question: Which “hydrolysis in crystal soak, inferred from bound product in X-ray structure” value (PcCel6A [1]) does the source give for `O=[N+]([O-])c1ccc(O[C@@H]2O[C@H](CO)[C@@H](O[C@@H]3O[C@H](CO)[C@@H](O[C@@H]4O[C@H](CO)[C@@H](O)[C@H](O)[C@H]4O)[C@H](O)[C@H]3O)[C@H](O)[C@H]2O)cc1` [p-nitrophenyl β-D-cellotrioside] here?
Answer: The observed α-cellobiose is considered to be a product of the hydrolysis of pNPG3

Question: With `OC[C@H]1O[C@@H](O[C@H]2[C@H](O)[C@@H](O)[C@@H](O)O[C@@H]2CO)[C@H](O)[C@@H](O)[C@@H]1O` [α-cellobiose] as the compound, how does the “X-ray crystal structure, 2.1 Å” value (PcCel6A [2]) read?
Answer: The ligand-bound structure obtained from the pNPG3-soaked crystal contained one α-cellobiose molecule
